# Data published in patent US12102639B2, “Imipridones for gliomas” (Oncoceutics, Inc., priority 2017, dated 2024).
# “Also recorded” adds a separate entry of the source.
# Key:
# GPCRs = assay: In vitro profiling of GPCR activity (arrestin recruitment panel)
# DRD2 = DRD2 (Homo sapiens, UniProt P14416); conditions: relative to antipsychotics
# [1] = system: H3.3 K27M mutant diffuse intrinsic pontine glioma (DIPG); assay: Treatment of girls with H3.3 K27M mutant DIPG; conditions: for symptoms / radiographic evaluation of tumor: child
# DRD4 = DRD4 (Homo sapiens, UniProt P21917); conditions: arrestin recruitment reporter assay
# [2] = system: GDSC collection of cell lines; assay: Genomic of Drug Sensitivity in Cancer (GDSC) cell line collection; assay type: cell-based, human; conditions: cell viability at 72 hours post-treatment
# Text: FIG. 2. Tumor type sensitivity of the Genomic of Drug Sensitivity in Cancer program (GDSC) cell line collection. […] Numbers above the bar indicates indicate the number of cell lines per tumor type.
# High expression of DRD2 occurred in primary, rather than secondary, glioblastoma and was associated with a poor prognosis. […] Resistance could be recapitulated with overexpression of the mutant DRD5 gene or, to a lesser extent, with the wild-type gene.
# [3] = system: temozolomide-resistant high-grade glioma xenografts; assay: High-grade glioma xenografts in mice; assay type: in vivo
# MV411 AML cells = assay: MV411 AML xenograft model; conditions: 50 mg/kg, oral weekly administration (ONC201 at similar doses)
# [4] = system: DRD2 (short and long isoforms); assay: GPCR β-arrestin recruitment reporter assay, DRD2; assay type: cell-based; conditions: for activity at DRD2: arrestin recruitment reporter assay
# [5] = system: tumor cells (HCT116, MDA-MB-231, U87); assay: Cell viability of tumor cells after 72 hours; conditions: Homo sapiens, read-out: viability of tumor cells
# DRD5 = DRD5 (Homo sapiens, UniProt P21918); assay: GPCR β-arrestin recruitment reporter assay, DRD5; assay type: cell-based
# [6] = system: recurrent high grade glioma; assay: Progression-free survival of patients with recurrent high grade glioma; assay type: in vivo, human; conditions: H3 K27M (n=15) vs wild-type or unknown H3 status (n=35)
# Text: In one study of thirty-nine pediatric diffuse intrinsic pontine gliomas, DIPG patients carrying the K27M-H3.3 mutation (n=30) have worse overall survival compared to patients wild-type (n=9) for this histone (Khoung-Quang et al., Acta Neuropathol (2012) 124:439). […] The cohort is divided into two groups: one with known H3 K27M mutation (n=15) and the other with wild-type or unknown H3 status (n=35).
# [7] = Phase II recurrent glioblastoma trial (NCT02525692); conditions: human, in vivo, 625 mg
# recurrent glioblastoma = assay: as above
# [8] = system: NCI60 cancer cell line panel; assay: NCI60 cancer cell line panel; assay type: cell-based; conditions: NCI60 panel (FIG. 4)
# [9] = system: patient-derived glioma stem cell (GSC) populations; assay: Patient-derived glioma stem cell assays (CellTiter-Glo, limiting dilution, sphere formation); assay type: cell-based, human
# Text: In silico analysis of a glioma patient database led to investigation of DRD2 signaling in glioma; alteration of DRD2 mRNA expression was directly connected to global gene expression change in the glioma patient database.
# Bone cancer = Bone cancer responsiveness; assay type: cell-based; conditions: FIG. 5
# [10] = system: Ewing's sarcoma cell lines; assay: Ewing's sarcoma cell lines; assay type: cell-based; conditions: 16 Ewing's sarcoma cell lines (FIG. 6, 7)
# several cell lines = assay: In vitro potency in several cell lines (Table 5)
# HFF (Normal Fibroblast) = assay: Cell viability of HFF normal fibroblasts; conditions: therapeutic doses, Table 5
# DRD3 = DRD3 (Homo sapiens, UniProt P35462); assay: GPCR β-arrestin recruitment reporter assay, DRD3; assay type: cell-based
# GPR132 = target: T1, GPR132 (Homo sapiens, UniProt Q9UNW8); assay: GPCR arrestin recruitment reporter assay, GPR132; assay type: cell-based; conditions: for activity at GPR132: arrestin recruitment reporter assay
# T1 construct: expressed in transfected cells
# T1 sequence (Q9UNW8 1-380): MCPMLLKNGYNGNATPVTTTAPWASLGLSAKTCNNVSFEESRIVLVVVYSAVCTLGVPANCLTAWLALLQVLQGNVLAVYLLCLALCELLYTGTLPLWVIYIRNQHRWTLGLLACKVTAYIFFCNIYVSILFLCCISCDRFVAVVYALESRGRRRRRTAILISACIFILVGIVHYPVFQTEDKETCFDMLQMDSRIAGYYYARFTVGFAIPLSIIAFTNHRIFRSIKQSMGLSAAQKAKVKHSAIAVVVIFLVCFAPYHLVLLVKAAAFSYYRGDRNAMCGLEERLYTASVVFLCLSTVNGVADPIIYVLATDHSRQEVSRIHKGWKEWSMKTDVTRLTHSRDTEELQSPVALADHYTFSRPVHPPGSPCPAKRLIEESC
# Method: (§1) Dual targeting of DRD2/3 and GPR132/91 represents a novel strategy for anti-cancer efficacy without toxicity. […] The safety profile of ONC213 confirmed in mouse MTD study with NOAEL 75 mg/kg three times that of ONC212 (25 mg/kg).
# (§2) ONC201 dihydrochloride was obtained from Oncoceutics.
# GPR91 = target: T2, GPR91 (Homo sapiens, UniProt Q9BXA5); assay: GPCR arrestin recruitment reporter assay, GPR91; assay type: cell-based
# T2 construct: expressed in transfected cells
# Method: as §1, §2
# CXCR7 = target: T3, CXCR7 (Homo sapiens, UniProt P25106); assay: GPCR arrestin recruitment reporter assay, CXCR7; assay type: cell-based
# T3 construct: expressed in transfected cells
# Text: as §2
# HCT116 cells = assay: Anticancer efficacy in HCT116 cells; assay type: cell-based, human; conditions: HCT116 cells
# DRD2L = DRD2L (Homo sapiens, UniProt P14416); assay: Arrestin recruitment to DRD2L, Gaddum/Schild EC50 shift analysis; assay type: cell-based
# [11] = 17 patients, 625 mg every three weeks
# Sequence of DRD5 (P21918 whole entry): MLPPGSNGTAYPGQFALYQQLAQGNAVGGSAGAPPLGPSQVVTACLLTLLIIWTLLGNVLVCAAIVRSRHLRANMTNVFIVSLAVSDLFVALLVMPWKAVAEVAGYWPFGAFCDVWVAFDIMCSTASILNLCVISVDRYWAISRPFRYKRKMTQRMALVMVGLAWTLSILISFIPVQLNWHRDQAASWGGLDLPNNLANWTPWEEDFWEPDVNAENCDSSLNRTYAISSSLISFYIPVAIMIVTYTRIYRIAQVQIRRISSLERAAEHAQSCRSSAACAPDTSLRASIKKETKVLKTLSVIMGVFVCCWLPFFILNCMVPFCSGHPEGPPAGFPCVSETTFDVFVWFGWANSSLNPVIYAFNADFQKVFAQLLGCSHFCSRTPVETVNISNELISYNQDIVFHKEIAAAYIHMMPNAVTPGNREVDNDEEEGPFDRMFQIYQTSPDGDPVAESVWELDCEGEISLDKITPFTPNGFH
# T3 sequence (P25106 whole entry): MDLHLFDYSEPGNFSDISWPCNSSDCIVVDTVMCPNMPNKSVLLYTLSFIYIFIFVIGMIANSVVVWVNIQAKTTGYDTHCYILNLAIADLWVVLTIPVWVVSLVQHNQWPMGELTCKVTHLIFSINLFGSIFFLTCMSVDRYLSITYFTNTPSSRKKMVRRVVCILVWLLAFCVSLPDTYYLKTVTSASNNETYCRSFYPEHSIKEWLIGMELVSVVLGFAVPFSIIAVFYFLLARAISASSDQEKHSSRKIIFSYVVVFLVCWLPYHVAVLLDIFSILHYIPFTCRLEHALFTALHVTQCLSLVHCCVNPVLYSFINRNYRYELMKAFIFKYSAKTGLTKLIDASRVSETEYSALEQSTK
# Sequence of DRD4 (P21917 whole entry): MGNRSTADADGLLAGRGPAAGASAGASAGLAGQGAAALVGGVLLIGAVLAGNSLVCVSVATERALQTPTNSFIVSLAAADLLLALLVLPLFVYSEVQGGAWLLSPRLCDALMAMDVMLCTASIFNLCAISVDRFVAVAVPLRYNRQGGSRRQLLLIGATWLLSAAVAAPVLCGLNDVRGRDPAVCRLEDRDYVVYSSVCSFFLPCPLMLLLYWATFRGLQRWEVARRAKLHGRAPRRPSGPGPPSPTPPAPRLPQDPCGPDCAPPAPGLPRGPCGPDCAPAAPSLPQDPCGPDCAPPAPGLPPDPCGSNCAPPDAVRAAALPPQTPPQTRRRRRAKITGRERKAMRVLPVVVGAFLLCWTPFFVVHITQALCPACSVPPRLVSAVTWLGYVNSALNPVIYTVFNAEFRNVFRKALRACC
# Sequence of DRD2L (P14416 whole entry): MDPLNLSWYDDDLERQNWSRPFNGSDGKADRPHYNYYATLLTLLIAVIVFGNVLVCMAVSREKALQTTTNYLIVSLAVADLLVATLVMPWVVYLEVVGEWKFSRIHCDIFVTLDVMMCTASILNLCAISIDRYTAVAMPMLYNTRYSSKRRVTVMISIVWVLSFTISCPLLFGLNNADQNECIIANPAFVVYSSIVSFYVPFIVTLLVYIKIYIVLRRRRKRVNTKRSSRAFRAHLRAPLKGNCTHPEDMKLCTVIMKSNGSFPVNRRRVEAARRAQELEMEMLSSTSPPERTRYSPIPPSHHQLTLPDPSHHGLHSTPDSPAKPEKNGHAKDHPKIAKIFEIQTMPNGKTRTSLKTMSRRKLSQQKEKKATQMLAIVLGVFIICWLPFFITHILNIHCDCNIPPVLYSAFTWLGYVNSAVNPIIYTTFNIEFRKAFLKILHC
# Sequence of DRD2 (P14416 whole entry): as above
# Sequence of DRD3 (P35462 whole entry): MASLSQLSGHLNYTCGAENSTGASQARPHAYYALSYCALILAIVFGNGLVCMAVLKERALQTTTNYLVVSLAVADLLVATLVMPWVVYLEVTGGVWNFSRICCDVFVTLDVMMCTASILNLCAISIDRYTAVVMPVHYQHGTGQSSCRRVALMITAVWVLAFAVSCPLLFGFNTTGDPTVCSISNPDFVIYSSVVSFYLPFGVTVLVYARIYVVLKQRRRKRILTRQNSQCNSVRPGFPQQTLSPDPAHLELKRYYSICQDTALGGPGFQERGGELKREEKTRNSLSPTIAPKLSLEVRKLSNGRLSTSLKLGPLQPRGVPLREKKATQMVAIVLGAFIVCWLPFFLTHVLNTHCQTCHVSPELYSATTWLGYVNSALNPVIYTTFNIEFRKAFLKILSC
# T2 sequence (Q9BXA5 whole entry): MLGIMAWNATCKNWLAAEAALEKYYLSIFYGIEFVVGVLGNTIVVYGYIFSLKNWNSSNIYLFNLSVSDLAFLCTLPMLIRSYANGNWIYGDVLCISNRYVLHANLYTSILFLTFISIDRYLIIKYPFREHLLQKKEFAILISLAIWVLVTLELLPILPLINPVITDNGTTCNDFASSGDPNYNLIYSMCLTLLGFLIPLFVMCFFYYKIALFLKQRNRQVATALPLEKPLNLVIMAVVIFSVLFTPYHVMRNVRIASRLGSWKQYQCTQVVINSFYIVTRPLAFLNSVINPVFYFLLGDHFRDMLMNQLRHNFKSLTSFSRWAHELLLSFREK
molecule,measurement,setting,value
"Cc1ccccc1CN1C(=O)C2=C(CCN(Cc3ccccc3)C2)N2CCN=C12 [ONC201, 7-benzyl-4-(2-methylbenzyl)-1,2,6,7,8,9-hexahydroimidazo [1,2-a]pyrido [3,4-e]pyrimidin-5(1H)-one]",GPCR profile,GPCRs,Antagonism of adrenoceptor alpha receptors or other GPCRs was not observed
same,association rate for DRD2,DRD2,very slow
same,symptoms,[1]; 125 mg once weekly,complete resolution of their inability to use their left arm and hand
same,radiographic evaluation of tumor,"[1]; 125 mg once weekly, after 6 weeks",stable tumor lesion
same,symptoms,[1]; 500 mg once weekly,near-complete resolution of their facial palsy; also recorded: improvement in facial palsy
same,radiographic evaluation of tumor,"[1]; 500 mg once weekly, after 16 weeks",significant regression; also recorded: shrinkage of lesion
same,tolerability,[1]; once weekly dosing,tolerates the therapy well
same,interactions with the kinome,kinome,no significant interactions
same,activity at DRD4,DRD4,weaker potency
same,in vitro efficacy profiling,[2],broad anti-cancer efficacy with high sensitivity in human brain cancer cell lines
same,survival of mice with orthotopic xenografts,[3]; monoagent and in combination with bevacizumab,prolongs the survival
same,effect on xenografts,[3]; temozolomide-resistant high-grade glioma xenografts,shrinks
same,leukemia xenograft tumor growth,MV411 AML cells,not efficacious
same,activity at DRD2,[4],selectively antagonizes; also recorded: antagonized
same,viability at 5000 µg/mL,[5],< 25%
same,activity at DRD5,DRD5,no antagonism; also recorded: but not D1-like (DRD1/5)
same,progression-free survival (PFS),[6],superior progression-free survival (PFS) in H3 K27M patients
same,concentration at 2 h,[7],2600 ng/mL
same,Median OS,recurrent glioblastoma; [11],41.6 weeks
same,OS12,recurrent glioblastoma; [11],35%
same,regression,"recurrent glioblastoma; one patient, 625 mg every three weeks, after 15 months of therapy",92%
same,time on study,recurrent glioblastoma; person one,> 10 weeks
same,response,"recurrent glioblastoma; person one, H3 K27M, first on-treatment evaluation at 8 weeks",complete disappearance of malignant lesions; also recorded: complete disappearance of tumor lesions
same,time on therapy with durable response,recurrent glioblastoma; person two,> 1.5 years
same,response,"recurrent glioblastoma; person two, H3.3 K27M mutant, 625 mg once every three weeks",durable objective response with complete regression of thalamic lesions
same,overall tumor size regression,"recurrent glioblastoma; person two, H3.3 K27M mutant, 625 mg once every three weeks, after 18 doses",96%
same,serum prolactin,recurrent glioblastoma; surrogate marker of target engagement,serum prolactin induction was observed; also recorded: significant induction of serum prolactin
O=C1C2=C(CCN(Cc3ccccc3)C2)N2CCN=C2N1Cc1cccs1 [ONC203],anti-cancer efficacy,[8],inactive negative control
O=C1C2=C(CCN(Cc3ccccc3)C2)N2CCN=C2N1Cc1ccc(F)cc1F [ONC206],anti-cancer efficacy,[8],demonstrated anti-cancer efficacy across various tumor types
same,effect on glioma stem cells,"[9]; CellTiter-Glo cell viability, compared to differentiated glioma cells",potently inhibits; also recorded: preferentially eliminated GSCs
same,tumor sphere formation,[9]; in vitro limiting dilution assay and sphere formation analysis,prevented tumor sphere formation and tumor growth
same,responsiveness,Bone cancer,more responsive to ONC206 than ONC201
same,anti-cancer efficacy,[10],most ONC206 responsive bone cancer subtype; also recorded: nanomolar range in 14 out of 16 Ewing's sarcoma cell lines
same,improvement in in vitro potency compared to ONC201,several cell lines,up to 20 fold
same,in vitro toxicity to normal cells,HFF (Normal Fibroblast),no in vitro toxicity to normal cells at therapeutic doses
same,activity at DRD2,[4],selective DRD2 antagonism
O=C1C2=C(CCN(Cc3ccccc3)C2)N2CCN=C2N1Cc1ccc(F)c(F)c1 [ONC213],activity at DRD3,DRD3,inhibitor
same,activity at GPR132,GPR132,agonist
same,GPR132 potency,GPR132; rank against other imipridones,less than ONC212
same,activity at GPR91,GPR91,agonist
same,activity at DRD2,[4],inhibitor
same,DRD2/3 potency,[4]; rank against other imipridones,more than ONC201 but less than ONC206
O=C1C2=C(CCN(Cc3ccc(Cl)c(Cl)c3)C2)N2CCN=C2N1Cc1ccc(C(F)(F)F)cc1 [ONC234],activity at CXCR7,CXCR7; arrestin recruitment reporter assay,agonist activity
same,GPCR profile,GPCRs,broad spectrum and potent GPCR targeting small molecule
same,activity at DRD2,[4],antagonist activity
same,activity at DRD5,DRD5,antagonist activity
O=C1C2=C(CCN(Cc3ccsc3)C2)N2CCN=C2N1Cc1ccc(C(F)(F)F)cc1 [ONC236],activity at GPR132,GPR132,highly selective GPR132 agonist
same,IC50,HCT116 cells,234 nM
same,IC50,"HCT116 cells; Homo sapiens, HCT-116",88 nM
O=C1C2=C(CCN(CC(O)c3ccccc3)C2)N2CCN=C2N1Cc1ccc(C(F)(F)F)cc1 (centres unmarked) [ONC237],activity at GPR132,GPR132,agonist
same,activity at DRD5,DRD5,antagonist
"Cc1ccccc1CN1C2=NCCN2C(=O)C2=C1CCN(Cc1ccccc1)C2 [TIC-10, reference compound]",activity at CXCR7,"CXCR7; statement in the description, no method given",CXCR7 agonist
TIC-10,inhibition of DRD2L,DRD2L,did not inhibit
